From patent US12285034B2, “Human and non-human animal use of microbial anaplerotic oil” (HELIAE DEVELOPMENT, LLC, priority 2017, dated 2025)

Legend:
[1] = tested on: Aurantiochytrium acetophilum HS399; assay: Cyanocobalamin impact on propionate metabolism (Example 21); format: cell-based
Protocol: Aurantiochytrium acetophilum HS399 was cultivated in the presence and absence of cyanocobalamin. […] The trace element solution contained (g/L): […] The vitamin solution contained (mg/L): thiamine (100) and biotin (0.5). All culture materials were autoclaved (121° C., 15 min) and media was filter sterilized before use. […] Biomass for lipid analysis was centrifuged and washed using purified water. The washed biomass was freeze dried. […] As described above, OCFAs anaplerosis can merely take place in the presence of cyanocobalamin. In this implementation, the cell dry weight and residual propionate can be monitored, and residual glucose in the media can be analyzed.

[2] = tested on: Aurantiochytrium acetophilum HS399; assay: Cyanocobalamin and propionate deposition, flask (Example 10); format: cell-based
[3] = tested on: Aurantiochytrium acetophilum HS399; assay: Cyanocobalamin impact on glucose metabolism (Examples 16, 20); format: cell-based; details: cyanocobalamin 0.37 μM vs 0, propionic acid 3 and 9 g/L
Protocol: (§1) As described above, OCFAs anaplerosis can merely take place in the presence of cyanocobalamin. In this implementation, the cell dry weight and residual propionate can be monitored, and residual glucose in the media can be analyzed.
Aurantiochytrium acetophilum HS399 was cultivated in the presence and absence of cyanocobalamin. […] The vitamin solution contained (mg/L): thiamine (100) and biotin (0.5). All culture materials were autoclaved (121° C., 15 min) and media was filter sterilized before use. […] Biomass for lipid analysis was centrifuged and washed using purified water. The washed biomass was freeze dried.
as §1, with “analyzed. […] Cell dry weight reached the same titers independently of the cyanocobalamin concentration.” for “analyzed.”

[4] = tested on: Aurantiochytrium acetophilum HS399; assay: Alternative promoters of OCFA production (Example 17); details: for capacity to induce the production of OCFAs: flask cultures
Protocol: Further, it may be beneficial to find alternative promotors to produce OCFA that are less toxic to the model organisms or that are simpler. In this implementation, pentanoate, heptanoate, yeast extract, proteose peptone, methionine, valine and isoleucine are evaluated for their capacity to induce the production of OCFAs. Erlenmeyer flasks can be used and A. acetophilum HS399 can be cultured following the protocols described herein.
In this implementation, respective flasks can be supplemented with different concentrations of the proposed promoters and the resulting biomass harvested and analyzed for total lipid and fatty acid analyses.

[5] = tested on: Yarrowia lipolytica ATCC18944; format: cell-based; details: 192 h, itaconic acid 0.5 / propionate 6 g/L
Protocol: Culture conditions. In one implementation, Yarrowia lipolytica ATCC18944 can be cultivated in triplicates (n=3) in a medium containing (g/L): glycerol (80), monosodium […]), yeast extract (1), NaCl (12.5), MgSO4 (7), H2O (2.5), KCl (0.5), CaCl2 (0.1), KH2PO4 (0.5), trace metal solution (5 mL) and vitamin solution (1 mL). The trace element solution may contain (g/L): […] The vitamin solution can be filter-sterilized (e.g., using 0.2 μm pore size filter) containing (mg L-1): thiamine (100), biotin (0.5) and cyanocobalamin (0.5) unless otherwise stated. In some implementations cyanocobalamin might be added to or subtracted from the medium formulation to change or impact propionic acid deposition in OCFA. […] In one implementation, a concentration of the cyanocobalamin and/or cobalt in the culture medium can be below 0.4 μM. […] The flasks can be incubated in the dark in an orbital shaker at 180 rpm, 27° C. In this implementation, sodium propionate is fed batch every day according to respective treatments. […] Analyses. Cell dry weights can be obtained by drying samples that are previously vacuum filtrated (e.g., using 0.2 μm pore size filters). Residual propionate is analyzed directly by high performance liquid chromatography (HPLC). Lipids and total fatty acids are analyzed using a direct extraction, transesterification followed by gas chromatography (GC) and detection by flame ionization (FID). The different fatty acids are identified and quantified using appropriate internal and external standards. Propionic acid deposition rate.

[6] = tested on: Aurantiochytrium acetophilum HS399; format: cell-based; details: acetic acid titrant (control), pH 7
Protocol: In this implementation, initially (24 h incubation), the culture pH may not be controlled, and the pH of the respective treatments can drift from 7.5 to 8. After 24 h incubation, the desired pH set point of each treatment can be set using the respective organic acids. […] The cultures are aerated at 1.4 vvm and maintained at 27° C. under axenic conditions. […] This medium also contains a trace element solution (5 ml/L) and a vitamin solution (1 ml/L). The trace element solution can contain (g/L): […] […] Residual glucose is analyzed from culture supernatant (5000 g; 5 min) using a colorimetric method based on glucose […] activity. Residual acetate and propionate are analyzed by HPLC using external standard.

[7] = cyanocobalamin 370 nM vs 0, propionic acid 16 g/L

cyanocobalamin
effect on cell dry weight [1, 7]: positive difference in cell dry weight | glucose uptake rate [1, 7]: significantly (P<0.01 t-student) lower | residual propionate in cultures deficient in cyanocobalamin ([1]; propionic acid 16 g/L, FIG. 58): chronical higher residual propionate | effect of cyanocobalamin deprived media on growth ([2]; over 10 generations): substantially no impact on growth | glucose uptake rate [3]: significantly (P<0.01 t-student) lower | growth in the first 48 hrs [3]: may not be impacted

CC[C@H](C)[C@H](N)C(=O)O [isoleucine]
capacity to induce the production of OCFAs [4]: identified as a nitrogen and OCFAs source

C=C(CC(=O)O)C(=O)O [Itaconic acid, itaconic acid, reference compound]
Cell dry weight [5]: 7.9 ± 1.1 g/L | Consumed propionate [5]: 5.0 ± 1.6 g/L | Odd chain fatty acids [5]: 1.1 ± 0.6 % DW | Propionic acid deposition [5]: 0.5 ± 0.2%

CC(C)[C@H](N)C(=O)O [valine]
capacity to induce the production of OCFAs [4]: identified as a nitrogen and OCFAs source

CSCC[C@H](N)C(=O)O [methionine, reference compound]
effect of supplementation on growth ([2]; 0.5 g/L, with or without cyanocobalamin 0.00037 μM): does not appear to have an impact in growth

CC(=O)O [Acetic acid, acetic acid, reference compound]
Total Fatty Acid [6]: 71.9 ± 5.2 % CDW | Total Lipids [6]: 89.5 ± 0.5 % CDW

CCCCCCC(=O)O [heptanoate, heptanoic acid]
toxicity (growth inhibition) ([4]; FIG. 53): higher than that of propionic acid
